Results reported in the supplement of paper PMC10307832.

Experiments:
Experiment in all cases: relative viability (nuclei count vs DMSO), 5 days (fraction); higher = more cells survive
Neratinib + Lapatinib = compound: CCOc1cc2ncc(C#N)c(Nc3ccc(OCc4ccccn4)c(Cl)c3)c2cc1NC(=O)/C=C/CN(C)C [Neratinib] + CS(=O)(=O)CCNCc1ccc(-c2ccc3ncnc(Nc4ccc(OCc5cccc(F)c5)c(Cl)c4)c3c2)o1 [Lapatinib] (partner 2 µM)
Procedure, shortened: (§1)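 Lung cancer cell lines in 1536-well plates got either a single drug or a fixed anchor-drug dose together with five library-drug doses (not always all listed) in √10 steps, by pin tool, on the day after seeding. Nuclei were counted after 5 days, and relative viability is the treated-to-vehicle ratio of nuclei counts. Values are medians of duplicate plates.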

Neratinib + Decitabine = compound: CCOc1cc2ncc(C#N)c(Nc3ccc(OCc4ccccn4)c(Cl)c3)c2cc1NC(=O)/C=C/CN(C)C [Neratinib] + Nc1ncn([C@H]2C[C@H](O)[C@@H](CO)O2)c(=O)n1 [Decitabine] (partner 2 µM)
Procedure, shortened: as §1

Neratinib + Olaparib = compound: CCOc1cc2ncc(C#N)c(Nc3ccc(OCc4ccccn4)c(Cl)c3)c2cc1NC(=O)/C=C/CN(C)C [Neratinib] + O=C(c1cc(Cc2n[nH]c(=O)c3ccccc23)ccc1F)N1CCN(C(=O)C2CC2)CC1 [Olaparib] (partner 8 µM)
Procedure, shortened: as §1

Neratinib + AZD7762 = compound: CCOc1cc2ncc(C#N)c(Nc3ccc(OCc4ccccn4)c(Cl)c3)c2cc1NC(=O)/C=C/CN(C)C [Neratinib] + NC(=O)Nc1cc(-c2cccc(F)c2)sc1C(=O)N[C@H]1CCCNC1 [AZD7762] (partner 0.2 µM)
Procedure, shortened: as §1

| Cell Line | relative viability (Neratinib + Lapatinib; first compound 0.01 µM) | relative viability (Neratinib + Lapatinib; first compound 0.03162 µM) | relative viability (Neratinib + Lapatinib; first compound 0.1 µM) | relative viability (Neratinib + Lapatinib; first compound 1 µM) | relative viability (Neratinib + Decitabine; first compound 0.01 µM) | relative viability (Neratinib + Decitabine; first compound 0.03162 µM) | relative viability (Neratinib + Decitabine; first compound 0.1 µM) | relative viability (Neratinib + Decitabine; first compound 0.3162 µM) | relative viability (Neratinib + Decitabine; first compound 1 µM) | relative viability (Neratinib + Olaparib; first compound 0.01 µM) | relative viability (Neratinib + Olaparib; first compound 0.03162 µM) | relative viability (Neratinib + Olaparib; first compound 0.1 µM) | relative viability (Neratinib + Olaparib; first compound 0.3162 µM) | relative viability (Neratinib + Olaparib; first compound 1 µM) | relative viability (Neratinib + AZD7762; first compound 0.01 µM) | relative viability (Neratinib + AZD7762; first compound 0.03162 µM) | relative viability (Neratinib + AZD7762; first compound 0.3162 µM) | relative viability (Neratinib + AZD7762; first compound 1 µM) | relative viability (Neratinib + Lapatinib; first compound 0.3162 µM) | relative viability (Neratinib + AZD7762; first compound 0.1 µM) |
| --- | --- | --- | --- | --- | --- | --- | --- | --- | --- | --- | --- | --- | --- | --- | --- | --- | --- | --- | --- | --- |
| NCI-H650 | 1.04 | 1.02 | 0.996 | 1.04 | 0.321 | 0.347 | 0.328 | 0.326 | 0.345 | 0.39 | 0.434 | 0.372 | 0.318 | 0.392 | 1.02 | 1.09 | 1 | 1.3 |  |  |
| NCI-H727 | 0.898 | 0.994 |  | 0.786 | 0.897 | 0.846 |  | 0.796 | 0.717 | 0.796 | 0.678 |  | 0.764 | 0.613 | 0.574 | 0.568 | 0.497 | 0.374 | 0.928 |  |
| NCI-H838 | 1.11 | 1.2 | 0.949 | 0.468 | 0.459 | 0.514 | 0.456 | 0.463 | 0.464 | 0.762 | 0.785 | 0.798 | 0.649 | 0.399 | 0.944 | 1.08 |  | 0.78 | 0.947 | 0.968 |
| NCI-H1355 | 1.09 | 1.06 | 1.04 | 0.938 | 0.343 | 0.326 | 0.337 | 0.372 | 0.341 | 0.772 | 0.719 | 0.7 | 0.701 | 0.547 | 0.904 | 0.754 | 0.706 | 0.538 | 0.984 | 0.642 |
| NCI-H1395 | 1.02 | 1.54 | 1.11 | 0.784 | 0.681 | 0.807 | 0.749 | 0.769 | 0.559 |  | 0.491 | 0.449 | 0.469 | 0.413 | 0.419 | 0.42 | 0.388 | 0.389 | 1.22 | 0.399 |
| NCI-H1437 | 0.911 | 0.881 | 0.771 | 0.703 | 0.539 | 0.521 | 0.582 | 0.58 | 0.661 | 0.673 | 0.614 | 0.612 | 0.603 | 0.663 | 1.18 | 1.12 | 1.08 | 0.896 | 0.721 | 1.05 |
| NCI-H1651 | 0.881 | 1.01 | 0.77 | 0.68 | 0.63 | 0.663 | 0.391 | 0.585 | 0.543 | 0.183 | 0.191 | 0.185 | 0.19 | 0.193 | 0.503 | 0.521 | 0.328 | 0.246 |  | 0.416 |
| NCI-H1666 | 1.02 | 0.769 | 0.546 | 0.596 |  |  | 0.747 | 0.612 | 0.604 | 0.751 | 0.806 | 0.675 | 0.666 | 0.806 | 0.929 | 0.946 | 0.653 | 0.611 | 0.673 | 0.783 |
| NCI-H1734 | 1.28 | 1.1 | 0.909 | 0.829 | 0.539 | 0.579 |  | 0.54 | 0.481 | 0.76 | 0.694 | 0.545 | 0.525 | 0.457 | 0.584 | 0.555 | 0.505 | 0.36 | 1.06 | 0.457 |
| NCI-H1755 | 1.03 | 1.07 | 0.969 | 1.09 | 0.728 | 0.715 | 0.718 | 0.805 | 0.858 | 0.925 | 0.922 | 0.807 | 0.918 | 0.824 | 0.492 | 0.53 | 0.65 | 0.407 | 1.12 | 0.356 |
| NCI-H1792 | 1.02 | 1.08 | 0.547 | 0.849 | 0.731 | 0.576 | 0.503 | 0.516 | 0.546 | 0.0369 | 0.65 | 0.376 | 0.257 | 0.174 |  | 0.943 | 0.533 | 0.283 | 0.81 | 0.625 |
| NCI-H1793 | 0.693 | 0.646 | 0.576 | 0.642 | 0.521 | 0.455 |  | 0.383 | 0.266 | 1 | 0.855 | 0.551 | 0.345 | 0.217 | 0.629 | 0.503 | 0.239 | 0.13 | 0.75 | 0.346 |
| NCI-H1915 | 1.05 | 1.05 | 0.898 | 0.964 | 0.262 | 0.271 | 0.251 | 0.241 | 0.286 | 0.232 |  | 0.221 | 0.245 | 0.252 | 0.791 | 0.716 | 0.685 | 0.653 | 0.832 | 0.638 |
| NCI-H1944 | 1.17 | 0.845 | 0.732 | 0.705 | 0.458 | 0.482 | 0.423 | 0.389 | 0.39 | 0.45 | 0.406 | 0.229 | 0.352 | 0.319 | 0.584 | 0.621 | 0.505 | 0.313 | 0.836 | 0.4 |
| NCI-H1975 | 1.09 | 0.972 | 0.609 | 0.191 | 0.36 | 0.444 | 0.351 | 0.346 | 0.19 | 0.917 | 0.96 | 0.644 | 0.43 | 0.18 | 0.855 | 0.847 | 0.362 | 0.303 | 0.403 | 0.619 |
| NCI-H1993 | 0.88 | 0.795 | 0.79 | 0.803 | 0.643 | 0.628 | 0.272 | 0.484 | 0.578 | 1.33 | 1.06 | 0.996 | 0.704 |  | 0.762 | 0.745 | 0.465 | 0.581 | 0.845 | 0.624 |
| NCI-H2085 | 0.76 | 0.887 | 0.767 | 0.699 | 0.595 | 0.547 | 0.542 | 0.485 | 0.516 | 0.755 | 0.8 | 0.729 | 0.644 | 0.639 | 0.924 | 1.04 | 0.746 |  | 0.71 | 0.933 |
